{
  "source": "paper PMC11968394",
  "about": "“The effect of deuterated PLK1 inhibitor on its safety and efficacy in vivo” (Frontiers in Oncology, 2025)",
  "key": {"RON": {"target": "RON (Homo sapiens, UniProt Q04912)", "sequence (Q04912 25-1400, species assumed)": "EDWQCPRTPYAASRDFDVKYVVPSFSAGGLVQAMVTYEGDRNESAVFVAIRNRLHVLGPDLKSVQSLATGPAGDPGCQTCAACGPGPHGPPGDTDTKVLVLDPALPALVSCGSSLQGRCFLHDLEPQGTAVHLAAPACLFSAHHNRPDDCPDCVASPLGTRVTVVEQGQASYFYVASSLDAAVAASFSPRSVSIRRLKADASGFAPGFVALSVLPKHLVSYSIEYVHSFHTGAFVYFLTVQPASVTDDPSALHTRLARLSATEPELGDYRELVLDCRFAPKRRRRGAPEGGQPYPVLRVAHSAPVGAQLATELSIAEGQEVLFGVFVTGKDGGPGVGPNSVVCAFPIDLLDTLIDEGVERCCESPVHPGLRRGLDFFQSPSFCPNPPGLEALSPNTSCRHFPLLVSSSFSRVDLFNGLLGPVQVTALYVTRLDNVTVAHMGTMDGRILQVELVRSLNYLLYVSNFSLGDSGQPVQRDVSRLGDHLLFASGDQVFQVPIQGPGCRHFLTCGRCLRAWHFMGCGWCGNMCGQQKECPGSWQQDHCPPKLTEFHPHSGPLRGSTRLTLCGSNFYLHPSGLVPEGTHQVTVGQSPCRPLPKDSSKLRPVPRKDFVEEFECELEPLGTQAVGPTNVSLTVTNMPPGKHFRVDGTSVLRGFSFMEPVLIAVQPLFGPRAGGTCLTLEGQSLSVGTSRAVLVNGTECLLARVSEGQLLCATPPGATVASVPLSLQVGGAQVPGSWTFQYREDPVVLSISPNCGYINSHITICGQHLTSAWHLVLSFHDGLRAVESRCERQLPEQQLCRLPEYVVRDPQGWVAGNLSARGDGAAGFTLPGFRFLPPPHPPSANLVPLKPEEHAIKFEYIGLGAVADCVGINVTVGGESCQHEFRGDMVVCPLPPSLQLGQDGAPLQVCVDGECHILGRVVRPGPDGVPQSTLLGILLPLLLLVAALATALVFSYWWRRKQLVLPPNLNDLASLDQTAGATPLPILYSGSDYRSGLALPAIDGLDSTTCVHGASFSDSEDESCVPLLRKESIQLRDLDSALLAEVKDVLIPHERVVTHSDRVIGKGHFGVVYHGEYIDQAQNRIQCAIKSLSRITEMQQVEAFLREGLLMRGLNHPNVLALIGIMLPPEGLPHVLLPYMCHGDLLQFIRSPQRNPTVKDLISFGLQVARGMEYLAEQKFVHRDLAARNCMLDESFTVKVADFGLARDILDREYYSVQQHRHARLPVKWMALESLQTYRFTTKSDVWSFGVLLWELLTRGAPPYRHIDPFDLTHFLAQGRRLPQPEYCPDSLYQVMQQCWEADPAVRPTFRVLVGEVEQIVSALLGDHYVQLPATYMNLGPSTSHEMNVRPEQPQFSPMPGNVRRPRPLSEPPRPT", "experiment": "Kinase assay RON", "type": "biochemical", "protocol": "(§1) Serial dilutions in DMSO were prepared. PLK1 was serially diluted 5-fold from 10 μM, yielding concentrations from 10000 nM to 0.00512 nM. Other targets were serially diluted 3-fold from 10 μM, yielding concentrations from 10000 nM to 0.5 nM. We have used two kinase assays: HTRF assay and ADG-Glo assay.\n(§2) For HTRF Assay, 2× ATP/substrate solution and 2× kinase solution were prepared in kinase reaction buffer. Using an Echo 655, 50 nL of each diluted compound was transferred to a 384-well detection plate. The plate was centrifuged at 1000 rpm for 1 minute. 2.5 μL of 2× kinase solution was added to each well. The plate was incubated at 25°C for 10 minutes. 2.5 μL of 2× ATP/substrate solution was added to each well. The plate was centrifuged at 1000 rpm for 1 minute. The plate was incubated at 25°C for 40 minutes. 2× XL665 and antibody detection reagent were prepared in detection buffer. 5 μL of the prepared kinase detection reagent was added to each well. The plate was centrifuged at 1000 rpm for 1 minute. The plate was incubated at 25°C for 1 hour. Fluorescence signals at 620 nm (Cryptate) and 665 nm (XL665) were measured using a multifunction plate reader.\n(§3) For ADP-Glo Assay, 2× ATP/substrate solution and 2× kinase solution were prepared in kinase reaction buffer. […] Luminescence signals were measured using a multifunction plate reader."}, "TSSK1": {"target": "TSSK1 (Homo sapiens, UniProt Q9BXA7)", "sequence (Q9BXA7 whole entry, species assumed)": "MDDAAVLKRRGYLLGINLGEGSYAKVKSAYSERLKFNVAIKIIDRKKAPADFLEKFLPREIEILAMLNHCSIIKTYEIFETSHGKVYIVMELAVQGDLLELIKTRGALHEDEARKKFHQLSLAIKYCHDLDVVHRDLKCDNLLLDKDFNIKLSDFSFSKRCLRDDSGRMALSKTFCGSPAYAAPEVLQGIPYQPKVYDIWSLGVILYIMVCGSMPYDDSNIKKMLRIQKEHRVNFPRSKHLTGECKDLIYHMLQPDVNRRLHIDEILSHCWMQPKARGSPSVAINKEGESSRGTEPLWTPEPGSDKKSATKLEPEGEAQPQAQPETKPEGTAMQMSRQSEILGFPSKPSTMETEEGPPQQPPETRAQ", "experiment": "Kinase assay TSSK1", "type": "biochemical", "protocol": "as §1, §2, §3"}, "PSN-1 CDX model": {"test_system": "PSN-1 CDX model", "experiment": "PSN-1 CDX model, tumor growth inhibition after 4-day dosing", "type": "in vivo, M-NSG mice", "conditions": "for TGI / Tumor volume Day 4: 4-day dosing; for Tumor volume Day 0: baseline", "protocol": "(§4) For in vivo PK/PD studies, a PSN1 tumor model was established in female M-NSG (NOD.Cg-Prkdc^scidIl2rg^em1Smoc ) mice, which are severely immunodeficient mice lacking the interleukin 2 receptor gamma chain on a NOD.Cg-Prkdc^scid background, at Shanghai Model Organisms (Shanghai, China). Briefly, 5 × 10^6 PSN1 cells were inoculated subcutaneously into each M-NSG mouse. Once the tumors reached approximately 500 mm³, compounds were administered orally at various dosages. For PK studies, blood samples were collected at 0, 0.25, 0.5, 1, 2, 6, and 24 hours post-dose. The sera from blood were then obtained and stored at -70°C. For PD studies, tumors were harvested 2 hours after dosing and stored at -70°C.The serum and tumor samples were then transported to PRECEDO (Hefei, Anhui, China) for further PK/PD studies.\n(§5) TGI was calculated as follows."}, "Capan-1": {"test_system": "Capan-1", "experiment": "Cell viability (CellTiter-Glo, 72 h), Capan-1", "type": "cell-based, Human", "conditions": "Capan-1, 72 hours; for Bottom: dose-response curve bottom; for Top: dose-response curve top; for IC50: Homo sapiens", "protocol": "(§6) Human pancreatic cancer cell lines (PSN1, PANC-1, Panc 04.03, MIA PaCa-2, BxPC-3, and Capan-1) were cultured in their respective culture media. PSN1 cell lines were maintained in RPMI 1640 + 10%FBS. MIA PaCa-2 cells were cultured in DMEM+10%FBS+5% horse serum. Panc 04.03 cells were grown in RPMI 1640 + 15%FBS+10μg/mL Insulin. PANC-1 cells were maintained in DMEM+10%FBS. BxPC-3 cells were cultured in RPMI 1640 + 10%FBS. Capan-1 cells were grown in IMDM+20%FBS. All cells were incubated at 37°C in a humidified atmosphere containing 5% CO2.\n(§7) For assays, cells in the logarithmic growth phase were harvested, seeded to different concentrations at 2,000-6,000 cells/well in 96-well plates. Following overnight incubation, test compounds were added at various concentrations and incubated for 72 hours. Cell viability was assessed by the ATP concentration using the CellTiter-Glo reagent (Promega, Madison, WI 53711 USA), and luminescence values were recorded by a Multilabel Reader (PerkinElmer, Waltham, MA, USA)."}, "CK1α": {"target": "CK1α (Homo sapiens, UniProt P48729)", "sequence (P48729 whole entry)": "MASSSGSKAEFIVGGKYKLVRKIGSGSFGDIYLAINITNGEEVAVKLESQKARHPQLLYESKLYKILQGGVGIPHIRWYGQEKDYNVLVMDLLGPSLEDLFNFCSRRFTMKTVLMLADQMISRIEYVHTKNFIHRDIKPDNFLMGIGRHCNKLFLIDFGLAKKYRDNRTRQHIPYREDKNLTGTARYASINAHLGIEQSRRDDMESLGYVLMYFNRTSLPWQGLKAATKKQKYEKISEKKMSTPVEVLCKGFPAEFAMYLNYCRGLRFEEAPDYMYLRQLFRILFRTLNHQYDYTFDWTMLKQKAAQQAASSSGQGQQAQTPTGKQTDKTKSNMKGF", "experiment": "Kinase assay CK1α", "type": "biochemical", "protocol": "as §1, §2, §3"}, "HCT 116 CDX model": {"test_system": "HCT 116 CDX model", "experiment": "HCT 116 CDX model", "type": "in vivo, BALB/c nude mouse", "conditions": "for Tumor growth: BALB/c nude mice; for Mice died: BALB/c nude, 8 mice/group", "protocol": "These studies were performed at Yikon Medical (Beijing, China). Cancer cell line HCT 116 or BxPC-3 were cultured in 10% FBS RPMI-1640 medium plus penicillin, streptomycin, and glutamine at 37°C and 5% CO2 until reaching confluency. Cells were then prepared for inoculation. 5×10⁷ cells/mL cells in 100 µL were inoculated subcutaneously into the right flank of each female BALB/c nude mouse for HCT 116 cell line or female NOD SCID mouse for BxPC-3 cell line. […] […] Mice were dosed at least 10 days and were monitored for 30 days.\nas §5"}, "[1]": {"experiment": "Pharmacokinetics in PSN1 tumor CDX model, M-NSG mice", "type": "in vivo", "conditions": "female, mouse, serum; PSN1 tumor-bearing M-NSG mice, oral, 60 mg/kg; read-out: T1/2 in blood (converted)", "protocol": "as §4\nFor PK studies, serum and tumor samples were processed with the internal standard solution. Serum samples were centrifuged and mixed directly, while tumor samples were homogenized first. Supernatants were prepared for LC-MS/MS analysis. Compound concentrations were determined using LC-MS/MS with tolbutamide as the internal standard, employing a reverse-phase column and ESI on a tandem quadrupole mass spectrometer."}, "BxPC-3": {"test_system": "BxPC-3", "experiment": "Cell viability (CellTiter-Glo, 72 h), BxPC-3", "type": "cell-based, Human", "conditions": "BxPC-3, 72 hours; for Bottom: dose-response curve bottom; for Top: dose-response curve top; for IC50: Homo sapiens", "protocol": "as §6, §7"}, "CK1ϵ": {"target": "CK1ϵ (Homo sapiens, UniProt P49674)", "sequence (P49674 whole entry)": "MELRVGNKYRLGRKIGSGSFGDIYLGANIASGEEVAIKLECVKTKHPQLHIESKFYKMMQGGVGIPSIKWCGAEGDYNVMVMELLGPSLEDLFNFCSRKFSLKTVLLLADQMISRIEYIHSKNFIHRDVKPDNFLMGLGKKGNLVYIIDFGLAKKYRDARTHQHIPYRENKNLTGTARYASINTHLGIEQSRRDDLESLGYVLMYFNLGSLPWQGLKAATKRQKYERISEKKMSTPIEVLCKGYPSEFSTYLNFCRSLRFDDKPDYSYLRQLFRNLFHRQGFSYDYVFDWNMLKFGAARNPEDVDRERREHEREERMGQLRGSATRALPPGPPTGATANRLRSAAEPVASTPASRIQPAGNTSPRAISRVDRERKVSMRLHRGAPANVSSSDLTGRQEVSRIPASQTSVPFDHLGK", "experiment": "Kinase assay CK1ϵ", "type": "biochemical", "protocol": "as §1, §2, §3"}, "PSN1": {"test_system": "PSN1", "experiment": "Cell viability (CellTiter-Glo, 72 h), PSN1", "type": "cell-based, Human", "conditions": "PSN1, 72 hours; for IC50: Homo sapiens; for Bottom: dose-response curve bottom; for Top: dose-response curve top", "protocol": "as §6, §7"}},
  "note": "Several values for one entry are separate records, joined by “and”; a condition that tells them apart may be missing. Equal values may be shown once.",
  "data": [
    {"compound": "CN1CCN(c2ccc(OC(F)(F)F)c(Nc3ncc4c(n3)-c3c(c(C(N)=O)nn3CCO)CC4)c2)CC1", "note": "[NMS-P937]", "values": [
      {"measurement": "IC50", "setting": "RON", "result": 1090, "unit": "nM"},
      {"measurement": "IC50", "setting": "TSSK1", "result": 77.8, "unit": "nM"},
      {"measurement": "TGI", "setting": "PSN-1 CDX model; 15 mg/kg", "result": 51.3, "unit": "%"},
      {"measurement": "Tumor volume Day 4", "setting": "PSN-1 CDX model; 15 mg/kg", "result": "166.43 ± 5.79", "unit": "mm^3"},
      {"measurement": "Tumor volume Day 0", "setting": "PSN-1 CDX model; 15 mg/kg", "result": "119.66 ± 1.67", "unit": "mm^3"},
      {"measurement": "TGI", "setting": "PSN-1 CDX model; 30 mg/kg", "result": 68.1, "unit": "%"},
      {"measurement": "Tumor volume Day 4", "setting": "PSN-1 CDX model; 30 mg/kg", "result": "149.94 ± 4.21", "unit": "mm^3"},
      {"measurement": "Tumor volume Day 0", "setting": "PSN-1 CDX model; 30 mg/kg", "result": "119.38 ± 2.09", "unit": "mm^3"},
      {"measurement": "TGI", "setting": "PSN-1 CDX model; 60 mg/kg", "result": 81.2, "unit": "%"},
      {"measurement": "Tumor volume Day 4", "setting": "PSN-1 CDX model; 60 mg/kg", "result": "137.49 ± 5.16", "unit": "mm^3"},
      {"measurement": "Tumor volume Day 0", "setting": "PSN-1 CDX model; 60 mg/kg", "result": "119.42 ± 2.14", "unit": "mm^3"},
      {"measurement": "Bottom", "setting": "Capan-1", "result": 2.5},
      {"measurement": "Top", "setting": "Capan-1", "result": 56.5},
      {"measurement": "IC50", "setting": "Capan-1", "result": 127, "unit": "nM"},
      {"measurement": "IC50", "setting": "CK1α", "result": 184, "unit": "nM"},
      {"measurement": "Body weight", "setting": "HCT 116 CDX model; 60 mg/kg", "result": "significant loss of body weight"},
      {"measurement": "Tumor growth", "setting": "HCT 116 CDX model", "result": "inhibited the growth of tumors in a dose-dependent manner"},
      {"measurement": "Mice died", "setting": "HCT 116 CDX model; 30 mg/kg, 30 mg/kg", "result": "one mouse died and 1/8"},
      {"measurement": "Mice died", "setting": "HCT 116 CDX model; 60 mg/kg, 60 mg/kg", "result": "three mice died and 3/8"},
      {"measurement": "half-life", "setting": "[1]", "result": 2.4, "unit": "h"},
      {"measurement": "Bottom", "setting": "BxPC-3", "result": -2.8},
      {"measurement": "Top", "setting": "BxPC-3", "result": 53.5},
      {"measurement": "IC50", "setting": "BxPC-3", "result": 64.9, "unit": "nM"},
      {"measurement": "IC50", "setting": "CK1ϵ", "result": 156, "unit": "nM"},
      {"measurement": "IC50", "setting": "PSN1", "result": 48.9, "unit": "nM"},
      {"measurement": "Bottom", "setting": "PSN1", "result": 2.3},
      {"measurement": "Top", "setting": "PSN1", "result": 85.9}
    ]},
    {"compound": "[2H]C1([2H])N(C)C([2H])([2H])C([2H])([2H])N(c2ccc(OC(F)(F)F)c(Nc3ncc4c(n3)-c3c(c(C(N)=O)nn3CCO)CC4)c2)C1([2H])[2H]", "note": "[PR00012]", "values": [
      {"measurement": "IC50", "setting": "RON", "result": 905, "unit": "nM"},
      {"measurement": "IC50", "setting": "TSSK1", "result": 53.2, "unit": "nM"},
      {"measurement": "TGI", "setting": "PSN-1 CDX model; 15 mg/kg", "result": 55.5, "unit": "%"},
      {"measurement": "Tumor volume Day 4", "setting": "PSN-1 CDX model; 15 mg/kg", "result": "162.12 ± 4.11", "unit": "mm^3"},
      {"measurement": "Tumor volume Day 0", "setting": "PSN-1 CDX model; 15 mg/kg", "result": "119.44 ± 1.78", "unit": "mm^3"},
      {"measurement": "TGI", "setting": "PSN-1 CDX model; 30 mg/kg", "result": 75.0, "unit": "%"},
      {"measurement": "Tumor volume Day 4", "setting": "PSN-1 CDX model; 30 mg/kg", "result": "143.49 ± 5.64", "unit": "mm^3"},
      {"measurement": "Tumor volume Day 0", "setting": "PSN-1 CDX model; 30 mg/kg", "result": "119.48 ± 1.95", "unit": "mm^3"},
      {"measurement": "TGI", "setting": "PSN-1 CDX model; 60 mg/kg", "result": 91.2, "unit": "%"},
      {"measurement": "Tumor volume Day 4", "setting": "PSN-1 CDX model; 60 mg/kg", "result": "127.93 ± 1.60", "unit": "mm^3"},
      {"measurement": "Tumor volume Day 0", "setting": "PSN-1 CDX model; 60 mg/kg", "result": "119.48 ± 1.72", "unit": "mm^3"},
      {"measurement": "Bottom", "setting": "Capan-1", "result": 15.6},
      {"measurement": "Top", "setting": "Capan-1", "result": 68.5},
      {"measurement": "IC50", "setting": "Capan-1", "result": 115, "unit": "nM"},
      {"measurement": "IC50", "setting": "CK1α", "result": 182, "unit": "nM"},
      {"measurement": "Tumor growth", "setting": "HCT 116 CDX model", "result": "inhibited the growth of tumors in a dose-dependent manner"},
      {"measurement": "Mice died", "setting": "HCT 116 CDX model; 30 mg/kg", "result": "No mice died"},
      {"measurement": "Mice died", "setting": "HCT 116 CDX model; 60 mg/kg, 60 mg/kg", "result": "one mouse died and 1/8"},
      {"measurement": "half-life", "setting": "[1]", "result": 5.5, "unit": "h"},
      {"measurement": "Bottom", "setting": "BxPC-3", "result": 13.6},
      {"measurement": "Top", "setting": "BxPC-3", "result": 66.3},
      {"measurement": "IC50", "setting": "BxPC-3", "result": 65.1, "unit": "nM"},
      {"measurement": "IC50", "setting": "CK1ϵ", "result": 156, "unit": "nM"},
      {"measurement": "IC50", "setting": "PSN1", "result": 60.7, "unit": "nM"},
      {"measurement": "Bottom", "setting": "PSN1", "result": 13.7},
      {"measurement": "Top", "setting": "PSN1", "result": 93.7}
    ]}
  ]
}
